The results in this text go back to patent publication US11192863B2, “Antiviral compounds and methods” (Biotron Limited, priority 2003, dated 2021).

Counter-ions that a name gives are not always drawn. Like-named read-outs stand apart in the source and are kept apart here.

Series [1] has as its target SARS E protein ion channel (Severe acute respiratory syndrome coronavirus, UniProt P59637). The series is classed as biochemical, SARS-CoV.
Series [2] deals with MHV (strain MHV-A59). The note with it: L929 cells.
In series [3] the target is SARS-CoV E protein (Severe acute respiratory syndrome coronavirus, UniProt P59637). The series is classed as cell-based.
The target of series [4] is Vpu protein (Human immunodeficiency virus type 1 group M subtype B, UniProt P05919). As to conditions: for Vpu Inhibition (score/# of times tested): halo of growth score between zero and six, XL1-blue E. coli with pPL-Vpu, no adenine, 37° C.
Series [5] has as its system human coronavirus OC43. Kind of series: microbe, parasite or virus in culture. In kind it is cell-based. The note with it: Betacoronavirus 1, OC43, MRC5, 120 h, MRC-5 cells, 5 days post infection.
Series [6] addresses 229E-CoV E-protein (Human coronavirus 229E, UniProt P19741). Kind of series: Bacterial bio-assay for 229E-CoV E-protein. As to conditions: halo of growth score; E. coli expressing E protein at 37° C.
The subject of series [7] is HIV. In kind it is cell-based. As to conditions: for At least 1x log reduction seen in p24 assay?: Table 19b, yes/no.
In series [8] the test system is bovine coronavirus (BCV). Kind of series: BCV plaque assay in MDBK cells. As to conditions: Betacoronavirus 1; BCV plaques in MDBK cells. In kind it is cell-based.
Series [9] deals with porcine respiratory coronavirus (PRCV) strain AR310. Kind of series: PRCV plaque assay in ST cells. The series is classed as cell-based. As to conditions: Alphacoronavirus 1; PRCV plaques in ST cells.
Series [10] has as its system Dengue 1 strain Hawaii. Kind of series: Dengue cytoproliferation assay in LLC-MK2 cells (Alamar Blue). The series is classed as cell-based, Dengue virus. The note with it: 7 days.
[11] abbreviates: Table 19a, rank among 12 compounds, 1 = highest score.

Vpu protein, sequence (P05919 whole entry): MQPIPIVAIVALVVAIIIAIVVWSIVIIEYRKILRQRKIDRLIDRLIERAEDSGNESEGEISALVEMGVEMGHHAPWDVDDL
SARS-CoV E protein, sequence (P59637 whole entry, looked up): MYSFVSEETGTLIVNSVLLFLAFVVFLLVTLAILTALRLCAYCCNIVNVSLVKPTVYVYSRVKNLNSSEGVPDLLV
SARS E protein ion channel, sequence (P59637 whole entry, looked up): as above
229E-CoV E-protein, sequence (P19741 whole entry): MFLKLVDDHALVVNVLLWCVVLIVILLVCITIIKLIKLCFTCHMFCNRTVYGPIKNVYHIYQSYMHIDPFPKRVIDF

In the case of `N/C(=N\C(=O)c1nc(Cl)c(N)nc1N)NCc1ccc(Cl)cc1Cl` [2′4 DichloroBenzamil HCl], the “% Reduction of average current by 100 μM” value in series [1] came to 78 ± 0%. Besides, the “Percent reduction in Plaque number/# experiments” value (“Percent reduction” for short) in [2] (1 uM) is listed as 0/3%; in series [2] (10 uM), 0/3%; in [2] (20 uM), 12/2%. Besides, the “SARS E protein Inhibition (score/# of times tested)” value (“SARS E protein Inhibition” below) in series [3] is recorded as 3.00/2 score. Moreover, the “Vpu Inhibition (score/# of times tested)” value in [4] is recorded as 1.7/2 score.
What is called inhibition is the percentage by which the read-out fell short of the control. Higher therefore signals a response far below the control. The molecule `N=C(N)NC(=O)/C=C/c1ccc(Cl)c(Cl)c1` [3,4-dichlorocinnamoylguanidine] showed an inhibition at 2.5 µM in [5] of 90%. Also, the “Percent reduction” value in series [2] (1 uM) is 50/2%; in series [2] (10 uM), 96/1%; in series [2] (20 uM), 91/2%. Also, the “SARS E protein Inhibition” value in series [3] is 4.15/2 score. In series [6], the “229E E protein Inhibition (score)” value is recorded as 4.4 score. The “Vpu Inhibition (score/# of times tested)” value in [4] is recorded as 2.9/3 score.
`N=C(N)NC(=O)/C=C/c1cccc(OC(F)(F)F)c1` [3-(trifluoromethoxy)cinnamoylguanidine] showed an inhibition at 2.5 µM in series [5] of 4%. In addition, the results for the “Percent reduction” value in series [2] (1 uM), in series [2] (10 uM) and in series [2] (20 uM) were 41/2%, 90/3% and 100/1%, respectively. Besides, the “SARS E protein Inhibition” value in series [3] is 2.71/1 score. For the same molecule, the “229E E protein Inhibition (score)” value in series [6] was 4.1 score. Further, the “Vpu Inhibition (score/# of times tested)” value in series [4] is listed as 2.44/2 score.
Broadly, the EC50 is the concentration that produces a half-maximal response. A high value points to a less potent agent. As for `N=C(N)NC(=O)/C=C/c1cccc(C(F)(F)F)c1` [3-(trifluoromethyl)cinnamoylguanidine], testing at 2.5 µM in series [5] gave an inhibition of 84%. Moreover, the “Percent reduction” value is 40/1% in [2] (1 uM), 83/1% in [2] (10 uM) and 98/1% in series [2] (20 uM). For the same molecule, in [3], the “SARS E protein Inhibition” value is given as 2.67/1 score. Further, the “Percent of Positive Control” value in series [7] (Drug Conc. 0.625 μM) was 38%; in [7] (Drug Conc. 1.25 μM) it was 27%; in series [7] (Drug Conc. 2.5 μM), 25%; in series [7] (Drug Conc. 5 μM) it was 8%; in series [7] (Drug Conc. 10 μM) it was 11%. The “At least 1x log reduction seen in p24 assay?” value (shortened to “At least 1x log reduction seen”) in series [7] is “yes”. The same molecule had an EC50 in series [8] of 3 µM. Also, in series [6], the “229E E protein Inhibition (score)” value came to 2.3 score. The “Bacterial assay rank order” value in series [4] (setting [11]) and in series [4] (Table 19b) was 2 in each case. Also, the “Vpu Bacterial score” value in series [4] (Table 19b) came to 3.7. Also, the “Vpu Inhibition (score/# of times tested)” value in [4] is 3.7/2 score.
In the case of `Cc1cccc(/C=C/C(=O)NC(=N)N)c1` [3-methylcinnamoylguanidine], the EC50 in series [9] stood at 1.43 µM. This molecule showed an inhibition at 2.5 µM in [5] of 100%. The “Percent reduction” value in series [2] (1 uM) was 39/1%; in series [2] (10 uM) it was 88/1%; in [2] (20 uM), 90/1%. Besides, in [3], the “SARS E protein Inhibition” value is 1.00/1 score. The “At least 1x log reduction seen” value in series [7] is “yes”. In addition, the “229E E protein Inhibition (score)” value in series [6] came to 0.5 score. In addition, the “Bacterial assay rank order” value in series [4] (setting [11]) and in series [4] (Table 19b) was 3 throughout. For the same molecule, in series [4] (Table 19b), the “Vpu Bacterial score” value worked out at 3.4. Besides, the “Vpu Inhibition (score/# of times tested)” value in [4] is 3.4/2 score.
On to `CC(C)c1ccc(/C=C/C(=O)NC(=N)N)cc1` [4-isopropylcinnamoylguanidine], for which, in [5], the inhibition at 2.5 µM turned out to be 68%. Besides, the “Percent reduction” value is 41/3% in series [2] (1 uM), 93/3% in [2] (10 uM) and 95/3% in series [2] (20 uM). For the same molecule, the “SARS E protein Inhibition” value in series [3] is 3.16/2 score. Besides, in series [6], the “229E E protein Inhibition (score)” value was determined as 4.9 score. Moreover, in series [4], the “Vpu Inhibition (score/# of times tested)” value is 1.4/2 score.
For `N=C(N)NC(=O)c1ccc(-c2ccccc2)cc1` [4-phenylbenzoylguanidine], the “Percent reduction” value in series [2] (1 uM) is given as 5/1%; in series [2] (10 uM), 24/1%; in series [2] (20 uM), 32/1%. In [3], the “SARS E protein Inhibition” value is on record as 0.63/2 score. Also, the “Percent of Positive Control” value is reported as 10% in series [7] (Drug Conc. 0.625 μM); 216% in [7] (Drug Conc. 1.25 μM); 9% in series [7] (Drug Conc. 2.5 μM); 4% in series [7] (Drug Conc. 5 μM); 26% in [7] (Drug Conc. 10 μM). The “At least 1x log reduction seen” value in [7] was “no”. The same molecule registered a concentration for a half-maximal effect (EC50) in series [8] of 190 µM. In addition, in series [6], the “229E E protein Inhibition (score)” value amounted to 2.3 score. For the same molecule, the “Bacterial assay rank order” value in [4] (setting [11]) and in series [4] (Table 19b) was 7 each time. The “Vpu Bacterial score” value in series [4] (Table 19b) was 2.8. Further, the “Vpu Inhibition (score/# of times tested)” value in series [4] is reported as 2.75/5 score.
As for `N=C(N)NC(=O)/C=C/c1ccccc1Br` [(2-Bromocinnamoyl)guanidine], the “% Reduction of average current by 100 μM” value in series [1] is 88 ± 6%. The “Percent reduction” value in series [2] (1 uM) is 52/3%; in series [2] (10 uM), 89/3%; in series [2] (20 uM) it was 91/2%. Besides, the “SARS E protein Inhibition” value in [3] is on record as 2.47/3 score. Further, the “229E E protein Inhibition (score)” value in series [6] amounted to 0.9 score. Moreover, the “Vpu Inhibition (score/# of times tested)” value in [4] is recorded as 3.7/2 score.
In the case of `N=C(N)NC(=O)/C=C/c1ccccc1Cl` [(2-Chlorocinnamoyl)guanidine], the “Antiviral Percent of Negative Control” value in series [10] (Drug Conc. 0.625 μM) was found to be 64.3%; in series [10] (Drug Conc. 1.25 μM), 52.5%; in series [10] (Drug Conc. 2.5 μM) it was 22.7%; in series [10] (Drug Conc. 5 μM), 7.7%; in [10] (Drug Conc. 10 μM), 8.4%. In series [5], this molecule showed an inhibition at 2.5 µM of 96%. Also, the figures for the “Percent reduction” value in series [2] (1 uM), in [2] (10 uM) and in [2] (20 uM) were 53/3%, 88/3% and 95/2%, respectively. In addition, the “SARS E protein Inhibition” value in series [3] is recorded as 3.1/3 score. Besides, the “229E E protein Inhibition (score)” value in series [6] is given as 0.1 score. Further, the “Vpu Inhibition (score/# of times tested)” value in [4] was 4.0/4 score.
In turn, `NC(N)=NC(=O)/C=C/c1ccc(Br)cc1` [(4-Bromocinnamoyl)guanidine] had an inhibition at 2.5 µM in series [5] of 29%. Further, the figures for the “Percent reduction” value in series [2] (1 uM) and in [2] (10 uM) were 52/3% and 98/3%, respectively. The “Toxic (noted in place of plaque reduction)” value in series [2] (20 uM) is “Toxic/2”. Moreover, the “SARS E protein Inhibition” value in [3] is on record as 1.69/2 score. For the same molecule, the “229E E protein Inhibition (score)” value in series [6] is 2.0 score. For the same molecule, in [4], the “Vpu Inhibition (score/# of times tested)” value is given as 2.5/4 score.
`NC(N)=NC(=O)/C=C/c1ccc(Cl)cc1` [(4-Chlorocinnamoyl)guanidine]: at 2.5 µM the inhibition in series [5] was 36%. In addition, the “Percent reduction” value in series [2] (1 uM) was 43/3%; in series [2] (10 uM), 88/2%; in [2] (20 uM), 97/2%. In series [3], the “SARS E protein Inhibition” value is listed as 1.94/2 score. For the same molecule, the “229E E protein Inhibition (score)” value in series [6] turned out to be 1.4 score. Moreover, in [4], the “Vpu Inhibition (score/# of times tested)” value is 2.7/5 score.
`NC(N)=NC(=O)/C=C/C=C/c1ccccc1` [(5-Phenyl-penta-2,4-dienoyl)guanidine] gave an inhibition at 2.5 µM in series [5] of 9%. The figures for the “Percent reduction” value in series [2] (1 uM), in series [2] (10 uM) and in [2] (20 uM) were 17/1%, 24/1% and 27/1%, respectively. In addition, the “SARS E protein Inhibition” value in [3] is reported as 0.44/2 score. In addition, in series [7], the “At least 1x log reduction seen” value is given as “no”. Further, a half-maximal effect in series [8] (EC50) was put at 95 µM. Besides, in series [6], the “229E E protein Inhibition (score)” value worked out at 1.8 score. In addition, the “Bacterial assay rank order” value in series [4] (setting [11]) and in series [4] (Table 19b) was 8 in each case. The “Vpu Bacterial score” value in series [4] (Table 19b) is on record as 2.6. In addition, in [4], the “Vpu Inhibition (score/# of times tested)” value was 2.56/2 score.
As to `O=C(CCc1ccccc1)NC(=Nc1ccccc1)NC(=O)CCc1ccccc1` [N,N′-bis(3phenylpropanoyl)-N″-phenylguanidine], in [1], the “% Reduction of average current by 100 μM” value is 88 ± 6%. For the same molecule, the results for the “Percent reduction” value in series [2] (1 uM), in series [2] (10 uM) and in series [2] (20 uM) were 1/3%, 40/4% and 67/3%, respectively. Besides, the “SARS E protein Inhibition” value in series [3] was 1.33/3 score. Also, the “229E E protein Inhibition (score)” value in series [6] was 0.1 score. Besides, the “Vpu Inhibition (score/# of times tested)” value in series [4] is recorded as 2.25/3 score.
